Data published in ChEMBL document CHEMBL1121716, “Potential organ- or tumor-imaging agents. 21. Acyl-labeled esters of cholesterol” (J Med Chem, 1981).

Experiments:
Conditions in all cases: in vivo
Rattus norvegicus [1] = test: Accumulation in ovary was evaluated by distribution of radioactivity at 0.5 hr after intravenous administration of 4-14C radiolabeled Cholesteryl Oleate to Rats; assay type: ADME, organism-based, Female gonad
Rattus norvegicus [2] = test: Accumulation in blood was evaluated by distribution of radioactivity at 0.5 hr after intravenous administration of 4-14C radiolabeled Cholesteryl Oleate to Rats; assay type: ADME, organism-based
Rattus norvegicus [3] = test: Accumulation in liver was evaluated by distribution of radioactivity at 0.5 hr after intravenous administration of oleate 1-14C radiolabeled Cholesteryl Oleate to Rats; assay type: ADME, organism-based
Rattus norvegicus [4] = test: Accumulation in adrenal cortex was evaluated by distribution of radioactivity at 0.5 hr after intravenous administration of 4-14C radiolabeled Cholesteryl Oleate to Rats; assay type: ADME, organism-based
Rattus norvegicus [5] = test: Accumulation in blood was evaluated by distribution of radioactivity at 0.5 hr after intravenous administration of oleate 1-14C radiolabeled Cholesteryl Oleate to Rats; assay type: ADME, organism-based
Rattus norvegicus [6] = test: Accumulation in ovary was evaluated by distribution of radioactivity at 0.5 hr after intravenous administration of oleate 1-14C radiolabeled Cholesteryl Oleate to Rats; assay type: ADME, organism-based, Female gonad
Rattus norvegicus [7] = test: Accumulation in thyroid was evaluated by distribution of radioactivity at 0.5 hr after intravenous administration of 4-14C radiolabeled Cholesteryl Oleate to Rats; assay type: ADME, organism-based, Thyroid gland
Rattus norvegicus [8] = test: Accumulation in adrenal cortex was evaluated by distribution of radioactivity at 0.5 h after intravenous administration of oleate 1-14C radiolabeled Cholesteryl Oleate to Rats; assay type: ADME, organism-based
Rattus norvegicus [9] = test: Accumulation in thyroid was evaluated by distribution of radioactivity at 0.5 hr after intravenous administration of oleate 1-14C radiolabeled Cholesteryl Oleate to Rats; assay type: ADME, organism-based, Thyroid gland
Rattus norvegicus [10] = test: Accumulation in liver was evaluated by distribution of radioactivity at 0.5 hr after intravenous administration of 4-14C radiolabeled Cholesteryl Oleate to Rats; assay type: ADME, organism-based
Rattus norvegicus [11] = test: Accumulation in blood was evaluated by distribution of radioactivity at 24 hr after intravenous administration of radioiodinated cholesteryl 2,3,5-tri[125I]iodobenzoate to Rats; assay type: ADME, organism-based
Rattus norvegicus [12] = test: Accumulation in adrenal cortex was evaluated by distribution of radioactivity at 0.5 hr after intravenous administration of radioiodinated cholesteryl 2,3,5-tri[125I]iodobenzoate to Rats; assay type: ADME, organism-based
Rattus norvegicus [13] = test: Accumulation in lung was evaluated by distribution of radioactivity at 24 hr after intravenous administration of radioiodinated cholesteryl 2,3,5-tri[125I]iodobenzoate to Rats; assay type: ADME, organism-based
Rattus norvegicus [14] = test: Accumulation in spleen was evaluated by distribution of radioactivity at 24 h after intravenous administration of radioiodinated cholesteryl 2,3,5-tri[125I]iodobenzoate to Rats; assay type: ADME, organism-based
Rattus norvegicus [15] = test: Accumulation in liver was evaluated by distribution of radioactivity at 0.5 hr after intravenous administration of radioiodinated cholesteryl 2,3,5-tri[125I]iodobenzoate to Rats; assay type: ADME, organism-based
Rattus norvegicus [16] = test: Accumulation in ovary was evaluated by distribution of radioactivity at 0.5 hr after intravenous administration of radioiodinated cholesteryl 2,3,5-tri[125I]iodobenzoate to Rats; assay type: ADME, organism-based, Female gonad
Rattus norvegicus [17] = test: Accumulation in adrenal cortex was evaluated by distribution of radioactivity at 24 hr after intravenous administration of radioiodinated cholesteryl 2,3,5-tri[125I]iodobenzoate to Rats; assay type: ADME, organism-based
Rattus norvegicus [18] = test: Accumulation in blood was evaluated by distribution of radioactivity at 0.5 hr after intravenous administration of radioiodinated cholesteryl 2,3,5-tri[125I]iodobenzoate to Rats; assay type: ADME, organism-based
Rattus norvegicus [19] = test: Accumulation in ovary was evaluated by distribution of radioactivity at 24 hr after intravenous administration of radioiodinated cholesteryl 2,3,5-tri[125I]iodobenzoate to Rats; assay type: ADME, organism-based, Female gonad
Rattus norvegicus [20] = test: Accumulation in lung was evaluated by distribution of radioactivity at 0.5 hr after intravenous administration of radioiodinated cholesteryl 2,3,5-tri[125I]iodobenzoate to Rats; assay type: ADME, organism-based
Rattus norvegicus [21] = test: Accumulation in thyroid was evaluated by distribution of radioactivity at 24 hr after intravenous administration of radioiodinated cholesteryl 2,3,5-tri[125I]iodobenzoate to Rats; assay type: ADME, organism-based, Thyroid gland
Rattus norvegicus [22] = test: Accumulation in thyroid was evaluated by distribution of radioactivity at 0.5 hr after intravenous administration of radioiodinated cholesteryl 2,3,5-tri[125I]iodobenzoate to Rats; assay type: ADME, organism-based, Thyroid gland
Rattus norvegicus [23] = test: Accumulation in spleen was evaluated by distribution of radioactivity at 0.5 hr after intravenous administration of radioiodinated cholesteryl 2,3,5-tri[125I]iodobenzoate to Rats; assay type: ADME, organism-based
Rattus norvegicus [24] = test: Accumulation in liver was evaluated by distribution of radioactivity at 24 hr after intravenous administration of radioiodinated cholesteryl 2,3,5-tri[125I]iodobenzoate to Rats; assay type: ADME, organism-based

## CCCCCCCC/C=C\CCCCCCCC(=O)OC1CCC2(C)C(=CCC3C2CCC2(C)C(C(C)CCCC(C)C)CCC32)C1 (centres undefined)
Rattus norvegicus [1]
  Dose/g of tissue: 2.815%
Rattus norvegicus [2]
  Dose/g of tissue: 5.78%
Rattus norvegicus [3]
  Dose/g of tissue: 1.236%
Rattus norvegicus [4]
  Dose/g of tissue: 3.85%
Rattus norvegicus [5]
  Dose/g of tissue: 5.196%
Rattus norvegicus [6]
  Dose/g of tissue: 2.088%
Rattus norvegicus [7]
  Dose/g of tissue: 0.446%
Rattus norvegicus [8]
  Dose/g of tissue: 2.448%
Rattus norvegicus [9]
  Dose/g of tissue: 0.344%
Rattus norvegicus [10]
  Dose/g of tissue: 1.569%

## CC(C)CCCC(C)C1CCC2C3CC=C4CC(OC(=O)c5cc(I)cc(I)c5I)CCC4(C)C3CCC12C (centres undefined)
Rattus norvegicus [11]
  Dose/g of tissue: 0.568%
Rattus norvegicus [12]
  Dose/g of tissue: 5.455%
Rattus norvegicus [13]
  Dose/g of tissue: 0.703%
Rattus norvegicus [14]
  Dose/g of tissue: 1.68%
Rattus norvegicus [15]
  Dose/g of tissue: 2.726%
Rattus norvegicus [16]
  Dose/g of tissue: 6.148%
Rattus norvegicus [17]
  Dose/g of tissue: 9.032%
Rattus norvegicus [18]
  Dose/g of tissue: 5.46%
Rattus norvegicus [19]
  Dose/g of tissue: 16.19%
Rattus norvegicus [20]
  Dose/g of tissue: 1.49%
Rattus norvegicus [21]
  Dose/g of tissue: 2.63%
Rattus norvegicus [22]
  Dose/g of tissue: 0.47%
Rattus norvegicus [23]
  Dose/g of tissue: 0.57%
Rattus norvegicus [24]
  Dose/g of tissue: 5.106%
